Laboratory results published in patent US9125913B2, “Bcl-2-selective apoptosis-inducing agents for the treatment of cancer and immune diseases” (AbbVie Inc., priority 2008, dated 2015).

Key:
[1] = test system: GST-Bcl-2; assay: TR-FRET binding assay, Bcl-2; details: TR-FRET Ki values
In short: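 Compounds serially diluted in DMSO from 50 μM (2× starting concentration, 10% DMSO), mixed with GST-tagged protein, F-Bak peptide probe and Tb-labeled antibody, incubated 3 h at room temperature.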

[2] = test system: FL5.12/Bcl-2 cells; assay: FL5.12/Bcl-2 cell viability assay; assay type: cell-based, murine; details: ratio of canine platelet EC50 to FL5.12/Bcl-2 EC50
In short: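 Viability measured with CellTiter-Glo after 24 h compound treatment at various concentrations, following 48 h IL-3 withdrawal (no WEHI-3B medium). Cells: prolymphocytic mouse FL5.12 line stably transfected to overexpress Bcl-2, cultured at 37 °C, 5% CO2.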

Row | Structure (SMILES) | Binding selectivity ratio (Bcl-XL Ki/Bcl-2 Ki) [1] | Selectivity Ratio (Platelet EC50/FL5.12/Bcl-2 EC50) [2]
1 | CC1(C)CCC(CN2CCN(c3ccc(C(=O)NS(=O)(=O)c4ccc(NC5CCN(C6CCOCC6)CC5)c([N+](=O)[O-])c4)c(Oc4ccc5[nH]ccc5c4)c3)CC2)=C(c2ccc(Cl)cc2)C1 [Example 173, 4-(4-{[2-(4-chlorophenyl)-4,4-dimethylcyclohex-1-en-1-yl]methyl}piperazin-1-yl)-2-(1H-indol-5-yloxy)-N-({3-nitro-4-[(1-tetrahydro-2H-pyran-4-ylpiperidin-4-yl)amino]phenyl}sulfonyl)benzamide] | 204.6 | >4587
2 | CN1CCC(Nc2ccc(S(=O)(=O)NC(=O)c3ccc(N4CCN(CC5=C(c6ccc(Cl)cc6)CCCCC5)CC4)cc3Oc3ccc4[nH]ccc4c3)cc2[N+](=O)[O-])CC1 [Example 151, 4-(4-{[2-(4-chlorophenyl)cyclohept-1-en-1-yl]methyl}piperazin-1-yl)-2-(1H-indol-5-yloxy)-N-({4-[(1-methylpiperidin-4-yl)amino]-3-nitrophenyl}sulfonyl)benzamide] | >4074.1 | 642
3 | O=C(NS(=O)(=O)c1ccc(NCCCN2CCCC2)c([N+](=O)[O-])c1)c1ccc(N2CCN(CC3=C(c4ccc(Cl)cc4)CCC3)CC2)cc1Oc1cccc2[nH]ccc12 [Example 143, 4-(4-{[2-(4-chlorophenyl)cyclopent-1-en-1-yl]methyl}piperazin-1-yl)-2-(1H-indol-4-yloxy)-N-({3-nitro-4-[(3-pyrrolidin-1-ylpropyl)amino]phenyl}sulfonyl)benzamide] | 33.8 | >251
4 | CC1(C)CCC(CN2CCN(c3ccc(C(=O)NS(=O)(=O)c4ccc(NCCCN5CCCC5)c([N+](=O)[O-])c4)c(Oc4cccc5[nH]ccc45)c3)CC2)=C(c2ccc(C(F)(F)F)cc2)C1 [Example 69, 4-[4-({4,4-dimethyl-2-[4-(trifluoromethyl)phenyl]cyclohex-1-en-1-yl}methyl)piperazin-1-yl]-2-(1H-indol-4-yloxy)-N-({3-nitro-4-[(3-pyrrolidin-1-ylpropyl)amino]phenyl}sulfonyl)benzamide] | 74 | >666
5 | CN(C)CCCNc1ccc(S(=O)(=O)NC(=O)c2ccc(N3CCN(CC4=C(c5ccc(Cl)cc5)CC(C)(C)CC4)CC3)cc2Oc2ccc3[nH]ccc3c2)cc1[N+](=O)[O-] [Example 53, 4-(4-{[2-(4-chlorophenyl)-4,4-dimethylcyclohex-1-en-1-yl]methyl}piperazin-1-yl)-N-[(4-{[3-(dimethylamino)propyl]amino}-3-nitrophenyl)sulfonyl]-2-(1H-indol-5-yloxy)benzamide] | 59.8 | 1697
6 | CC1(C)CCC(CN2CCN(c3ccc(C(=O)NS(=O)(=O)c4ccc(NCCCN5CCOCC5)c([N+](=O)[O-])c4)c(Oc4ccc5c(c4)CCCN5)c3)CC2)=C(c2ccc(Cl)cc2)C1 [Example 22, 4-(4-{[2-(4-chlorophenyl)-4,4-dimethylcyclohex-1-en-1-yl]methyl}piperazin-1-yl)-N-({4-[(3-morpholin-4-ylpropyl)amino]-3-nitrophenyl}sulfonyl)-2-(1,2,3,4-tetrahydroquinolin-6-yloxy)benzamide] | 20.2 | >61
7 | CN1CCC(Nc2ccc(S(=O)(=O)NC(=O)c3ccc(N4CCN(CC5=C(c6ccc(Cl)cc6)CC(C)(C)C5)CC4)cc3Oc3cccc4[nH]ccc34)cc2[N+](=O)[O-])CC1 [Example 144, 4-(4-{[2-(4-chlorophenyl)-4,4-dimethylcyclopent-1-en-1-yl]methyl}piperazin-1-yl)-2-(1H-indol-4-yloxy)-N-({4-[(1-methylpiperidin-4-yl)amino]-3-nitrophenyl}sulfonyl)benzamide] | >12.2 | 864
8 | CN(C)CCCNc1ccc(S(=O)(=O)NC(=O)c2ccc(N3CCN(CC4=C(c5ccc(Cl)cc5)CC(C)(C)CC4)CC3)cc2Oc2ccc3[nH]ccc3c2)cc1C#N [Example 172, 4-(4-{[2-(4-chlorophenyl)-4,4-dimethylcyclohex-1-en-1-yl]methyl}piperazin-1-yl)-N-[(3-cyano-4-{[3-(dimethylamino)propyl]amino}phenyl)sulfonyl]-2-(1H-indol-5-yloxy)benzamide] | 32.1 | >257
9 | O=C(NS(=O)(=O)c1ccc(NCCCN2CCOCC2)c([N+](=O)[O-])c1)c1ccc(N2CCN(Cc3ccccc3-c3ccc(Cl)cc3)CC2)cc1Oc1ccccc1 [Example 155, 4-{4-[(4′-chloro-1,1′-biphenyl-2-yl)methyl]piperazin-1-yl}-N-({4-[(3-morpholin-4-ylpropyl)amino]-3-nitrophenyl}sulfonyl)-2-phenoxybenzamide] | 77.8 | >119
10 | CN(C)CCCNc1ccc(S(=O)(=O)NC(=O)c2ccc(N3CCN(CC4=C(c5ccc(Cl)cc5)CC(C)(C)CC4)CC3)cc2Oc2cccc3[nH]ccc23)cc1[N+](=O)[O-] [Example 57, 4-(4-{[2-(4-chlorophenyl)-4,4-dimethylcyclohex-1-en-1-yl]methyl}piperazin-1-yl)-N-[(4-{[3-(dimethylamino)propyl]amino}-3-nitrophenyl)sulfonyl]-2-(1H-indol-4-yloxy)benzamide] | 68.7 | 1077
11 | O=C(NS(=O)(=O)c1ccc(NCC2CCOCC2)c([N+](=O)[O-])c1)c1ccc(N2CCN(Cc3cc(CN4CCCC4)ccc3-c3ccc(Cl)cc3)CC2)cc1Oc1cccc2[nH]ccc12 [Example 24, 4-(4-{[4′-chloro-4-(pyrrolidin-1-ylmethyl)-1,1′-biphenyl-2-yl]methyl}piperazin-1-yl)-2-(1H-indol-4-yloxy)-N-({3-nitro-4-[(tetrahydro-2H-pyran-4-ylmethyl)amino]phenyl}sulfonyl)benzamide] | >3402.1 | >906
12 | CN1CCC(Nc2ccc(S(=O)(=O)NC(=O)c3ccc(N4CCN(CC5=C(c6ccc(Cl)cc6)CC(C)(C)CC5)CC4)cc3Oc3ccc4[nH]ccc4c3)cc2[N+](=O)[O-])CC1 [Example 98, 4-(4-{[2-(4-chlorophenyl)-4,4-dimethylcyclohex-1-en-1-yl]methyl}piperazin-1-yl)-2-(1H-indol-5-yloxy)-N-({4-[(1-methylpiperidin-4-yl)amino]-3-nitrophenyl}sulfonyl)benzamide] | >50769.2 | 4849
13 | CN(C)CCOc1cccc(-c2ccc(Cl)cc2)c1CN1CCN(c2ccc(C(=O)NS(=O)(=O)c3ccc(NCCCN4CCCC4)c([N+](=O)[O-])c3)c(Oc3ccc4[nH]ccc4c3)c2)CC1 [Example 134, 4-[4-({4′-chloro-3-[2-(dimethylamino)ethoxy]-1,1′-biphenyl-2-yl}methyl)piperazin-1-yl]-2-(1H-indol-5-yloxy)-N-({3-nitro-4-[(3-pyrrolidin-1-ylpropyl)amino]phenyl}sulfonyl)benzamide] | 347.1 | 98
14 | CN1CCC(CNc2ccc(S(=O)(=O)NC(=O)c3ccc(N4CCN(CC5=C(c6ccc(Cl)cc6)CC(C)(C)CC5)CC4)cc3Oc3ccc4[nH]ccc4c3)cc2[N+](=O)[O-])(N(C)C)CC1 [Example 109, 4-(4-{[2-(4-chlorophenyl)-4,4-dimethylcyclohex-1-en-1-yl]methyl}piperazin-1-yl)-N-{[4-({[4-(dimethylamino)-1-methylpiperidin-4-yl]methyl}amino)-3-nitrophenyl]sulfonyl}-2-(1H-indol-5-yloxy)benzamide] | >4099.4 | >1404
15 | CN1CCC(Nc2ccc(S(=O)(=O)NC(=O)c3ccc(N4CCN(CC5=C(c6ccc(Cl)cc6)CC(C)(C)OC5)CC4)cc3Oc3cccc4[nH]ccc34)cc2[N+](=O)[O-])CC1 [Example 145, 4-(4-{[4-(4-chlorophenyl)-6,6-dimethyl-5,6-dihydro-2H-pyran-3-yl]methyl}piperazin-1-yl)-2-(1H-indol-4-yloxy)-N-({4-[(1-methylpiperidin-4-yl)amino]-3-nitrophenyl}sulfonyl)benzamide] | 401 | 730
16 | CC1(C)CCC(CN2CCN(c3ccc(C(=O)NS(=O)(=O)c4ccc(NCCCN5CCOCC5)c([N+](=O)[O-])c4)c(Oc4ccccc4)c3)CC2)=C(c2ccc(Cl)cc2)C1 [Example 18, 4-(4-{[2-(4-chlorophenyl)-4,4-dimethylcyclohex-1-en-1-yl]methyl}piperazin-1-yl)-N-({4-[(3-morpholin-4-ylpropyl)amino]-3-nitrophenyl}sulfonyl)-2-phenoxybenzamide] | 34.2 | 241
17 | O=C(NS(=O)(=O)c1ccc(NCC2CCOCC2)c([N+](=O)[O-])c1)c1ccc(N2CCN(Cc3c(OCCN4CCOCC4)cccc3-c3ccc(Cl)cc3)CC2)cc1Oc1ccc2[nH]ccc2c1 [Example 132, 4-(4-{[4′-chloro-3-(2-morpholin-4-ylethoxy)-1,1′-biphenyl-2-yl]methyl}piperazin-1-yl)-2-(1H-indol-5-yloxy)-N-({3-nitro-4-[(tetrahydro-2H-pyran-4-ylmethyl)amino]phenyl}sulfonyl)benzamide] | 570.1 | >1196
